Patent publication US6166085A, “Method of producing analgesia” (priority 1996, dated 2000)
Entries after “also recorded” stand apart in the source; their conditions may differ.

Tests used:
allodynia [1] = assay: Tactile allodynia (paw withdrawal threshold, % MPE) in L5/L6 spinal nerve ligated rats, Example 3; format: in vivo, Harlan Sprague-Dawley rats; conditions: for effect on allodynia, IV (in words) / Emax at 20 mg/kg: 20 mg/kg; for Emax at 20 mg/kg: Rattus norvegicus, 1 h, IV, 3-OH L in DMSO (p=0.006 vs DMSO, N=4), MEGX over 60 minutes (P=NS vs saline), read-out: maximum effect on PWT (% MPE), IV
Description: Male Harlan Sprague-Dawley rats were used (100-200 g). Rats were housed 2-3 to a cage with corn cob bedding and Purina rat chow and water ad libitum, in a standard facility with a 12 h/12 h day/night cycle. After surgical procedures involving chronic indwelling catheter insertion, animals were housed singly to prevent catheter damage.
Rats were allowed to recover 5-7 days before further testing or surgeries.
The catheters were 9 cm in intrathecal length and terminated near the lumbar enlargement. The rostral 3 cm of catheter was tunneled under the skin to externalize between the ears. Rats with neurologic deficits were discarded.
For intravascular access, external jugular catheters were fashioned from PE-50 tubing and inserted into an external jugular vein under halothane/oxygen anesthesia. Arterial catheters were also fashioned from PE-50 with a small bouton 1 cm from the intravascular end for suture securing; they were inserted into a carotid artery, taking care to spare the surrounding nerves. All catheters were flushed with heparinized saline (10 U/ml) and tunneled subcutaneously to emerge at the posterior base of the neck, and capped when not in use.
Monoethylglycinexylidide (MEGX) and 3-hydroxy monoethyl-glycinexylidide (3-OH MEGX) were dissolved in physiologic saline; 3-hydroxylidocaine (3-OH L) was dissolved in DMSO for intravenous administration.
(§1) Intravenous drugs were delivered to awake, unrestrained rats by slow infusion using a syringe pump (Harvard apparatus 22). Intrathecal drugs were delivered to awake, briefly restrained rats in a volume of 10 μl, followed by 10 μl of vehicle flush, using a calibrated tubing extension with a 30-gauge adapter fitting the implanted intrathecal catheter, attached to a geared Hamilton 100 μl glass syringe. IT drug delivery was monitored by observing the advancement of a small air bubble down the tubing.
Rats were placed in a plastic cage with an open wire mesh bottom and allowed to accommodate for approximately fifteen minutes. […] In brief, von Frey hairs were sequentially applied using an up-and-down paradigm to the left mid-plantar hindpaw with sufficient force to cause slight filament buckling. Positive responses were noted if the paw was sharply withdrawn. […] Otherwise, PWT were calculated by noting the stimulus level at which the first change in behavior occurred, collecting four additional responses to the continued up-and-down oscillation of stimulus presentation around the response threshold, and interpolating the 50% response threshold. For some comparisons, raw thresholds were converted to percent of maximum possible effect (% MPE), designating pre-treatment PWT (baselines) as 0% effect, and assigning a cutoff value of 100% effect to thresholds ≥15 g: therefore, % MPE values near 100 indicate normal mechanical thresholds (i.e., at or near 15 g), whereas values near 0 indicate allodynia. The following equation was used to compute % MPE:
% MPE=new threshold(g)-baseline threshold(g)×100/ 15 grams--baseline
Plasma drug levels and PWT were correlated using linear regression. Serially measured PWT and % MPE were compared using repeated measures ANOVA with post-hoc testing.

[2] = Observation of motor dysfunction and overt behavior / side effects; format: in vivo, Sprague-Dawley rats; conditions: IT; for motor dysfunction, IT (in words): Example 3, lidocaine and MEGX 500 μg, 3-OH L 58 μg (highest dose soluble in vehicle)
From the text: Animals were also observed for the appearance of general motor dysfunction,as evidenced by inability to ambulate symmetrically and for any other overt signs of unusual activity.

allodynia [3] = conditions: cited from earlier work; for activity as metabolite with regard to allodynia suppression, earlier application: application Ser. No. 08/422,377
[4] = system: sciatic nerve compound action potential; assay: Rat sciatic nerve compound action potential in vivo, direct application; set-up: species or system Harlan Sprague Dawley rats; conditions: for potency relative to lidocaine: compound action potential blockade; for blockade of sciatic nerve compound action potential (in words): direct application, lidocaine 2.5 mg, metabolites 5 mg, 10 min
Description: Male Harlan Sprague Dawley rats (300-350 g) were anesthetized with pentobarbital/diazepam. The sciatic nerves were sequentially and bilaterally exposed by sharp/blunt dissection from the popliteal region proximally. Electrodes were placed at the sciatic notch (stimulating), and the interossei (recording); a grounding electrode was applied remote from the field. Baseline compound action potential (CAP) (A alpha/beta) wave heights (mV) in response to stimulation 1× per minute were recorded for ten minutes to obtain a stable reference. One drug/vehicle solution was applied per nerve, at mid-nerve (mid-thigh) level, in a volume of 250 μl, and compound action potential wave height then was recorded 1× per minute for ten minutes after application.

[5] = Plasma bupivacaine level and toxicity during IV infusion; format: in vivo, Harlan Sprague-Dawley rats
Description: as §1
For bupivacaine assays, samples were obtained by withdrawing and discarding approximately 0.3 cc of blood from arterial cannulae, and then withdrawing samples of approximately 0.5 cc volume. These samples were centrifuged and the plasma supernatant was frozen at -20° C. until analysis.
Bupivacaine was extracted from the thawed samples by solid-phase extraction chromatography )Chen Y et al., Therapeut Drug Monitor 14:317-321 (1992)). Sep-Pak C-18 (300 mg) cartridges were pre-conditioned with 4 ml of methanol and then 4 ml water. […]
Bupivacaine was quantitated by capillary GC with nitrogen-phosphorus detection )Bjork M et al., Journal of Chromatography 533:229-234 (1990)). […] Split injections (1.5:1) were performed with a Hewlett Packard 7673A automatic sampler, and the chromatograms were recorded and analyzed with H-P Chemstation (MSDOS) software. […]

mechanical allodynia = assay: Mechanical allodynia in rat model of peripheral neuropathy (L5/L6 spinal nerve ligation), intrathecal, Example 2; format: in vivo, Sprague-Dawley rats; conditions: 0.6 μmol intrathecal, pH 6.58
Description: Experiments carried out in support of the present invention were performed in a rat model of peripheral neuropathy detailed in Example 2. Briefly, in the model used, rats are subjected to a surgical procedure, described by Kim and Chung (1992), designed to reproducibly injure peripheral nerves (spinal nerves L5 and L6). These rats develop a hyperesthetic state, which can be measured using one or more paradigms known in the art. Here, allodynia was measured by stimulation of neuropathic rat hindlimb using wire hairs having graded degrees of stiffness.
[…]. Test solutions at pH 6.58 were administered intrathecally as described above. Mechanical allodynia was measured by pressing nylon filaments of varying diameters against the paw. Data are expressed in terms of 50% response threshold, which is the median buckling weight required to evoke paw withdrawal; the lower the stimulus level, the more severe the allodynia.
Male Sprague-Dawley rats (200-350 gm) were prepared with chronic lumbar intrathecal catheters inserted under halothane anesthesia (Yaksh and Rudy). Animals were placed in a prone position and the left paraspinal muscles were separated from the spinous processes at the L4 -S2 levels, as described by Kim et al. The left L5 and L6 nerve roots were exposed and tightly ligated with 6-0 surgical silk suture. The rats were allowed to recover from anesthesia. Allodynia was typically observed to occur beginning 1-2 days post surgery and continuing for as long as 45 days. For testing, animals were placed in plastic cubicles with open wire mesh bottoms. Compound dissolved in preservative-free saline solution was administered in a volume of 10 μl through the intrathecal catheter, followed by 10 μl saline to flush the catheter line. Animals were tested for allodynia at various time points after drug treatment, as described below.
To assess the threshold of a non-noxious stimulus required to produce a left hind paw withdrawal (allodynia), Von Frey hairs (ranging from 0.4-15 grams), were systematically applied to the surgically treated hind paw. Failure to evoke a response was cause to test the next stiffer hair. Evocation of a brisk withdrawal response was cause to test the next lower stimulus intensity. This paradigm was repeated according to a statistical method (Dixon, 1976) to define the 50% response threshold.
Data in FIG. 6 are expressed in terms of 50% response threshold, which is the median buckling weight required to evoke paw withdrawal; the lower the stimulus level, the more severe the allodynia. Allodynia thresholds, measured 30 minutes after injection, were plotted against dosage. Each point represents a value for a single animal.

| Compound | effect on allodynia, IV (in words) (allodynia [1]; IV infusion) | Emax at 20 mg/kg (allodynia [1]) | motor dysfunction, IT (in words) [2] | activity as metabolite with regard to allodynia suppression, earlier application (allodynia [3]) | potency relative to lidocaine [4] | blockade of sciatic nerve compound action potential (in words) [4] | also measured |
| --- | --- | --- | --- | --- | --- | --- | --- |
| CCN(CC)CC(=O)Nc1c(C)ccc(O)c1C [3-OH L, 3-hydroxylidocaine] | both potent and effective at suppressing allodynia | 76% | no motor dysfunction was seen | active metabolite with regard to allodynia suppression | 1/4 | showed some activity | MPE, IT 20 μg (allodynia [1]; IT, 20 (unit printed "l g")): 80.2±20%; MPE, IT 58 μg (allodynia [1]; IT, 58 (unit printed "l g")): 63±16%; local anesthetic (sodium channel blocking) activity ([4]; FIG. 12 legend): weaker local anesthetic than lidocaine |
| CCNCC(=O)Nc1c(C)cccc1C [MEGX, Monoethylglycinexylidide] | no effect | 28% | transient motor dysfunction | not MEGX was an active metabolite with regard to allodynia suppression | approximately 1/3 | showed some activity | suppression of allodynia after IT administration (summary) (allodynia [1]; IT): not MEGX, suppressed allodynia after IT administration; effect on allodynia / PWT, IT 500 μg (in words) (allodynia [1]; IT, 500 μg, after recovery of motor function): no effect on PWT; duration of motor dysfunction (hindquarter flaccidity / weakness) ([2]; 500 μg): 5 to 10 min; motor block / motor effects (summary) ([2]; 3-hydroxy MEGX at effective anti-allodynia dose, MEGX in excess): motor blockade |
| CCCCN1CCCCC1C(=O)Nc1c(C)cccc1C (stereo not drawn) [bupivacaine] | – | – | – | – | – | – | toxicity (in words) [5]: evident toxicity as manifested by ataxia and lethargy; also recorded: Higher doses resulted in seizure; mean plasma level at seizure ([5]; N=4, unit not given): 7.4±0.7; effect of intravenous bupivacaine on allodynia (allodynia [1]; IV infusion, 15 samples from 4 rats, P=0.11, linear regression): no effect on allodynia; also recorded: inactive against allodynia; effect of IV bupivacaine on allodynia, earlier literature (allodynia [3]; Biella G et al. 1992, centrally facilitated nociceptive processing): lack of effect of bupivacaine on centrally facilitated nociceptive processing |
| Cc1cccc(C)c1OCC(C)N (stereo not drawn) [mexiletine] | – | – | – | – | – | – | effect on mechanical allodynia (50% response threshold), 0.6 μmol (mechanical allodynia): did not block mechanical allodynia |
